The target in this assay is T1, PE-labeled human PD-L1-Ig binding to Jurkat cell line over-expressing human PD-1 (Jurkat-PD-1) (Homo sapiens, UniProt Q15116).
T1 construct: expressed in transfected cells; host or cells: Jurkat
Nature of the assay: Jurkat-PD-1 Cell Binding High-Content Screening Assay (CBA): Method 1. The settings on record: Jurkat-hPD-1 cells, PE-labeled PD-L1-Ig 20 nM final; read-out: Jurkat HPDL1 PD1 IC50 (uM) (Method 1).

The structures appear in SMILES notation. Numbered stars: 1 amine (or outer) side, 2 acyl side, 3 side chain; on linkers, the order of the positions; unused ones are H or OH. Bridge positions count the residues as written; N and C are the ends. Square brackets hold non-standard residues; d marks the D form. Peptide text beside a SMILES is read from it. * marks the point of attachment. X44 = COc1cc(F)cc(-c2ccc(C[C@H](N[*:1])C(=O)[*:2])cc2)c1; Phe(3,4-Cl2) = N[C@@H](Cc1ccc(Cl)c(Cl)c1)C(=O)O; Phe(4-CONH2) = NC(=O)c1ccc(C[C@H](N)C(=O)O)cc1; Phe(4-COOH) = N[C@@H](Cc1ccc(C(=O)O)cc1)C(=O)O; Bip = N[C@@H](Cc1ccc(-c2ccccc2)cc1)C(=O)O; Phe(3-CN) = N#Cc1cccc(C[C@H](N)C(=O)O)c1; Phe(3-F) = N[C@@H](Cc1cccc(F)c1)C(=O)O; Phe(3-Me) = Cc1cccc(C[C@H](N)C(=O)O)c1; Val(3-OH) = CC(C)(O)[C@H](N)C(=O)O; 4Pal = N[C@@H](Cc1ccncc1)C(=O)O; 2Thi = N[C@@H](Cc1cccs1)C(=O)O; Cha = N[C@@H](CC1CCCCC1)C(=O)O; Cit = NC(=O)NCCC[C@H](N)C(=O)O; dChg = N[C@@H](C(=O)O)C1CCCCC1; NMeNle = CCCC[C@H](NC)C(=O)O; Carboxymethyl = O=C(O)C*; NMeA = CN[C@@H](C)C(=O)O; Nle = CCCC[C@H](N)C(=O)O; Dab = NCC[C@H](N)C(=O)O

Broadly, the IC50 is the concentration that gives 50% inhibition.

T1 sequence (Q15116 25-288): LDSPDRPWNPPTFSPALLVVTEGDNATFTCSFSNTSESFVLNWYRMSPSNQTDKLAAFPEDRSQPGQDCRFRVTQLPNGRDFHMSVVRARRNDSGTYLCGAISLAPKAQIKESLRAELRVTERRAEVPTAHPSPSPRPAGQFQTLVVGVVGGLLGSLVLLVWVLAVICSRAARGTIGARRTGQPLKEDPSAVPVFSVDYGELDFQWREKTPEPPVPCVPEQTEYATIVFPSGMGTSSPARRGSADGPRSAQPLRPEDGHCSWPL

On to `Cc1cccc(C[C@@H]2NC(=O)[C@H](CC(=O)O)NC(=O)[C@H](Cc3ccc(OCC(=O)O)cc3)NC(=O)[C@H](Cc3ccncc3)NC(=O)CSC[C@@H](C(=O)N[C@@H](CO)C(N)=O)NC(=O)[C@H](CO)NC(=O)[C@H](C(C)(C)O)NC(=O)[C@H](CC3CCCCC3)NC(=O)[C@H](CCN)NC(=O)[C@@H](CC(C)C)NC(=O)[C@H](C)N(C)C(=O)[C@H](Cc3ccc(C(=O)O)cc3)NC(=O)[C@H](Cc3ccc(-c4ccccc4)cc3)NC(=O)[C@H](Cc3ccc(C(N)=O)cc3)NC2=O)c1` [Compound 2180] ({CH2CO}-[4Pal]Y(Carboxymethyl)D[Phe(3-Me)][Phe(4-CONH2)][Bip][Phe(4-COOH)][NMeA][dL][Dab][Cha][Val(3-OH)]SCS-NH2; thioether N-14), for which the IC50 worked out at 0.02 µM.
For `CC(C)C[C@@H]1NC(=O)[C@H](CCCNC(=N)N)NC(=O)[C@@H](C2CCCCC2)NC(=O)[C@H](C)N(C)C(=O)[C@H](CCCNC(=N)N)NC(=O)[C@H](Cc2ccc(-c3ccccc3)cc2)NC(=O)[C@H](C(C)C)NC(=O)[C@H](Cc2c[nH]c3ccccc23)NC(=O)[C@H](CC(=O)O)NC(=O)[C@H](Cc2ccc(O)cc2)NC(=O)[C@H](Cc2ccccc2)NC(=O)CSC[C@@H](C(=O)N[C@@H](C)C(N)=O)NC(=O)[C@H]([C@@H](C)O)NC(=O)[C@H](C(C)C)NC1=O` [Compound 1061] ({CH2CO}-FYDWV[Bip]R[NMeA][dChg]RLVTCA-NH2; thioether N-14), the 50% inhibitory concentration (IC50) amounted to 0.1 µM.
For `CSCC[C@H]1NC(=O)[C@H](C)N(C)C(=O)[C@H](CCCNC(=N)N)NC(=O)[C@H](Cc2ccc(-c3ccccc3)cc2)NC(=O)[C@H](C(C)C)NC(=O)[C@H](Cc2c[nH]c3ccccc23)NC(=O)[C@H](CC(=O)O)NC(=O)[C@H](Cc2ccc(O)cc2)NC(=O)[C@H](Cc2ccccc2)NC(=O)CSC[C@@H](C(=O)N[C@@H](C)C(N)=O)NC(=O)[C@H]([C@@H](C)O)NC(=O)[C@H](C(C)C)NC(=O)[C@H](CC(C)C)NC(=O)[C@H](CCCNC(=N)N)NC1=O` [Compound 1062] ({CH2CO}-FYDWV[Bip]R[NMeA][dM]RLVTCA-NH2; thioether N-14) the value was 0.15 µM; for `CCCC[C@@H]1NC(=O)[C@H](Cc2ccc(-c3ccccc3)cc2)NC(=O)[C@H](C(C)C)NC(=O)[C@H](Cc2c[nH]c3ccccc23)NC(=O)[C@H](CC(=O)O)NC(=O)[C@H](Cc2ccc(C(=O)O)cc2)NC(=O)[C@H](Cc2ccncc2)NC(=O)CSC[C@@H](C(=O)N[C@@H](CC(N)=O)C(N)=O)NC(=O)[C@H](CO)NC(=O)[C@H](C(C)C)NC(=O)[C@H](CC2CCCCC2)NC(=O)[C@H](CCN)NC(=O)[C@@H](C)NC(=O)[C@H](CCCC)N(C)C1=O` [Compound 2089] ({CH2CO}-[4Pal][Phe(4-COOH)]DWV[Bip][Nle][NMeNle][dA][Dab][Cha]VSCN-NH2; thioether N-14), 0.05 µM.
The same measure for `CC(C)C[C@@H]1NC(=O)[C@H](CCCNC(=N)N)NC(=O)[C@@H](CC(C)C)NC(=O)[C@H](C)N(C)C(=O)[C@H](CCCNC(=N)N)NC(=O)[C@H](Cc2ccc(-c3ccccc3)cc2)NC(=O)[C@H](C(C)C)NC(=O)[C@H](Cc2ccc(Cl)c(Cl)c2)NC(=O)[C@H](CC(=O)O)NC(=O)[C@H](Cc2ccc(O)cc2)NC(=O)[C@H](CC(N)=O)NC(=O)CSC[C@@H](C(=O)N[C@@H](C)C(N)=O)NC(=O)[C@H]([C@@H](C)O)NC(=O)[C@H](C(C)C)NC1=O` [Compound 1195] ({CH2CO}-NYD[Phe(3,4-Cl2)]V[Bip]R[NMeA][dL]RLVTCA-NH2; thioether N-14): 0.32 µM.
On to `COc1cc(F)cc(-c2ccc(C[C@@H]3NC(=O)[C@H](C(C)C)NC(=O)[C@H](Cc4c[nH]c5ccccc45)NC(=O)[C@H](CC(=O)O)NC(=O)[C@H](Cc4ccc(O)cc4)NC(=O)[C@H](CC(N)=O)NC(=O)CSC[C@@H](C(=O)N[C@@H](C)C(N)=O)NC(=O)[C@H]([C@@H](C)O)NC(=O)[C@H](C(C)C)NC(=O)[C@H](CC(C)C)NC(=O)[C@H](CCN)NC(=O)[C@@H](CC(C)C)NC(=O)[C@H](C)N(C)C(=O)[C@H](CCCNC(=N)N)NC3=O)cc2)c1` [Compound 1223] ({CH2CO}-NYDWV[X44]R[NMeA][dL][Dab]LVTCA-NH2; thioether N-14), for which the half-maximal inhibitory concentration (IC50) was 0.32 µM.
`CCNC(=O)[C@H](CCN)NC(=O)[C@@H]1CSCC(=O)N[C@@H](Cc2cccs2)C(=O)N[C@@H](Cc2cccc(C#N)c2)C(=O)N[C@@H](CC(=O)O)C(=O)N[C@@H](Cc2cccc(C)c2)C(=O)N[C@@H](Cc2cccc(F)c2)C(=O)N[C@@H](Cc2ccc(-c3ccccc3)cc2)C(=O)N[C@@H](Cc2ccc(OCC(=O)O)cc2)C(=O)N(C)[C@@H](C)C(=O)N[C@H](CC(C)C)C(=O)N[C@@H](CCN)C(=O)N[C@@H](CC2CCCCC2)C(=O)N[C@@H](C(C)(C)O)C(=O)N[C@@H](CO)C(=O)N1` [Compound 1841] ({CH2CO}-[2Thi][Phe(3-CN)]D[Phe(3-Me)][Phe(3-F)][Bip]Y(Carboxymethyl)[NMeA][dL][Dab][Cha][Val(3-OH)]SC[Dab]-NHEt; thioether N-14): the half-inhibitory concentration (IC50) was determined as 0.02 µM.
For `CC(C)C[C@@H]1NC(=O)[C@H](CCN)NC(=O)[C@@H](CC(C)C)NC(=O)[C@H](C)N(C)C(=O)[C@H](CCCNC(N)=O)NC(=O)[C@H](Cc2ccc(-c3ccccc3)cc2)NC(=O)[C@H](C(C)C)NC(=O)[C@H](Cc2c[nH]c3ccccc23)NC(=O)[C@H](CC(=O)O)NC(=O)[C@H](Cc2ccc(OCC(=O)O)cc2)NC(=O)[C@H](CC(N)=O)NC(=O)CSC[C@@H](C(=O)N[C@@H](C)C(N)=O)NC(=O)[C@H]([C@@H](C)O)NC(=O)[C@H](C(C)C)NC1=O` [Compound 1321] ({CH2CO}-NY(Carboxymethyl)DWV[Bip][Cit][NMeA][dL][Dab]LVTCA-NH2; thioether N-14) the value was 0.08 µM; for `CC(C)C[C@@H]1NC(=O)[C@H](C)NC(=O)[C@@H](C)NC(=O)[C@H](C)N(C)C(=O)[C@H](C(C)C)NC(=O)[C@H](Cc2ccc(-c3ccccc3)cc2)NC(=O)[C@H](CC(C)C)NC(=O)[C@H](Cc2c[nH]c3ccccc23)NC(=O)[C@H](CC(=O)O)NC(=O)[C@H](Cc2ccc(O)cc2)NC(=O)[C@H](Cc2ccccc2)NC(=O)CSC[C@@H](C(=O)N[C@@H](C)C(N)=O)NC(=O)[C@H](CO)NC(=O)[C@H](C(C)C)NC1=O` [Compound 1733] ({CH2CO}-FYDWL[Bip]V[NMeA][dA]ALVSCA-NH2; thioether N-14), 0.01 µM; for `CC(C)C[C@@H]1NC(=O)[C@H](CCN)NC(=O)[C@@H](CC(C)C)NC(=O)[C@H](C)N(C)C(=O)[C@H](CCCNC(=N)N)NC(=O)[C@H](Cc2ccc(-c3ccccc3)cc2)NC(=O)[C@H](C(C)C)NC(=O)[C@H](Cc2c[nH]c3ccccc23)NC(=O)[C@H](CC(=O)O)NC(=O)[C@H](Cc2ccc(O)cc2)NC(=O)[C@H](CCC(N)=O)NC(=O)CSC[C@@H](C(=O)N[C@@H](C)C(N)=O)NC(=O)[C@H]([C@@H](C)O)NC(=O)[C@H](C(C)C)NC1=O` [Compound 1056] ({CH2CO}-QYDWV[Bip]R[NMeA][dL][Dab]LVTCA-NH2; thioether N-14), 0.06 µM.
`CC(C)C[C@@H]1NC(=O)[C@H](Cc2c[nH]c3ccccc23)NC(=O)[C@H](CC(=O)O)NC(=O)[C@H](Cc2ccncc2)NC(=O)[C@H](Cc2ccc(OCC(=O)O)cc2)NC(=O)CSC[C@@H](C(=O)N[C@@H](C)C(N)=O)NC(=O)[C@H](CO)NC(=O)[C@H](C(C)C)NC(=O)[C@H](CC(C)C)NC(=O)[C@H](CC(N)=O)NC(=O)[C@@H](C)NC(=O)[C@H](C)N(C)C(=O)[C@H](C(C)C)NC(=O)[C@H](Cc2ccc(-c3ccccc3)cc2)NC1=O` [Compound 1564] ({CH2CO}-Y(Carboxymethyl)[4Pal]DWL[Bip]V[NMeA][dA]NLVSCA-NH2; thioether N-14): the IC50 amounted to 0.01 µM.

The values above are taken from patent publication US20240409585A1, “MACROCYCLIC IMMUNOMODULATORS” (priority 2021, published 2024).
